SMILES strings stand for the structures. Read-outs that look alike come from different tables or passages of the source. Some results are limits rather than exact numbers.

For one experiment, the system named is HuH7 cells. Description: MTT antiproliferative (growth inhibition) assay on HuH7 cells. The format is cell-based, human. Conditions: for IC50: Homo sapiens, Huh-7, MTT. The text has this: (§1) MTT was purchased from DUCHEFA Biochemie ([…]). Sunitinib, and sodium dodecyl sulfate, bovine serum albuminwere obtained from Sigma Aldrich (Singapore). Sorafenib was purchase from Ontario Chem. Fetal bovine serum (FBS) was obtained from Invitrogen. Human hepatocellular carcinoma cells (HuH-7 and Hep G2), and human diploid fibroblast strain (IMR 90). HuH7 was obtained as gifts from Dr Ho Han Kiat, Department of Pharmacy, NUS. IMR90 and Hep G2 were purchased from American Type Culture Collection (ATCC). HuH-7 cells were cultured in DMEM (Dulbecco's Modified Eagle Medium, high glucose) with 10% v/v fetal bovine serum (FBS), 100 mg/L penicillin G and 100 mg/L streptomycin. IMR 90 cell were cultured in EMEM (Eagle's Minimum Essential Medium), with 10% v/v FBS and 100 mg/L penicillin G and 100 mg/L streptomycin. The cells were sub-cultured when HuH7 or Hep G2 reached a density of 70-80×10^5 cell/T75 flask, and IMR 90 reached 20×10^5 cell/T75 flask. Cells were used within 2-10 passages for viability experiments.
(§2) The anti-proliferative activity of the test compounds were determined by the MTT assay. An aliquot (200 μL, 3×10^4 cells/mL for HuH7, 3.75×10^4 cells/mL for Hep G2, and 2×10^4 cells/mL for IMR 90) of medium was added to each well of the microtitre plate. […] The existing medium was removed from each well and replaced by fresh medium (200 μL) containing a known concentration of test compound. The final concentration of DMSO in each well was maintained at 0.5% v/v. (1% v/v was also utilized if the compounds were not soluble) The test compounds were incubated with the cells for another 72 h at 37 deg C., 5% CO2. The medium was then removed from the well and replaced with FBS free medium (200 μL) and MTT (50 μL of 2 mg/mL solution in phosphate buffer saline, pH 7.4). The phosphate buffer saline comprises 10 mM of potassium phosphate and 137 mM sodium chloride. After incubation (3 h) at 37 deg C., 5% CO2, the supernatant was removed and a solution of 200 μL DMSO and 25 μL Sorenson buffer (0.1 M glycine, 0.1 M sodium chloride, adjusted to pH 10.5 with 0.1 M sodium hydroxide) was added to dissolve the formazan crystals in each well. Vehicle control were cells grown in 1% v/v DMSO/Medium for 72 h, 37 deg C., 5% CO2 while blank controls were wells that contained only 200 μL DMSO and 25 μL Sorenson buffer. Absorbances were measured at 570 nm on a microplate reader (Tecan, Infinite 200). The viability of cells at a given concentration of test compound was determined from the expression:
(§3) [formula] where abs_compound=absorbance of wells containing cells and test compound, abs_vehicle (Not the same as above. Change to abs_vehicle)=absorbance of vehicle control and abs_blank=absorbance of blank control.
(§4) Each concentration of test compound was evaluated at least 3 times on separate occasions, and two different stock solution were used. The IC50 value (concentration that inhibited 50% of cell growth) was determined from the sigmoidal curve obtained by plotting percentage viability versus logarithmic concentration of test compound using GraphPad Prism 5 (San Diego, USA).

The subject of the next experiment is Hep G2. Description: MTT antiproliferative assay on Hep G2 cells. The format is cell-based. Conditions: Homo sapiens, HepG2, 72 h.
Excerpt: as §1, §2, §3, §4
In general terms: Tetrazolium dyes change colour on reduction, which living cells bring about.

The test system of another experiment is IMR 90. Description: MTT antiproliferative assay on non-malignant IMR 90 fibroblasts. The format is cell-based. The conditions noted are these: non-malignant human lung fibroblast IMR 90, MTT, 72 h.
Excerpt: as §1, §2, §3, §4

[1] abbreviates: 72 h (Table 9), read-out: IC50 (μM) HuH7.
The mark [2] stands for this setting: 72 h incubation, mean and SD of 3 or more independent determinations (Tables 1-8), read-out: IC 50.

As for `CNS(=O)(=O)c1cccc(/C=C2/C(=O)Nc3ccc(F)cc32)c1` [Compound 4-16, (E)-3-(5-Fluoro-2-oxo-1,2-dihydro-indol-3-ylidenemethyl)-N-methyl-benzenesulphonamide], the IC50 with HuH7 cells (setting [1]) turned out to be 1.18 ± 0.02 µM; with HuH7 cells (setting [2]), 1.18 ± 0.02 µM; with Hep G2, 9.11 ± 0.32 µM; in the experiment on IMR 90, 9.92 ± 0.57 µM.

Consider `CC(C)NS(=O)(=O)c1cccc(/C=C2/C(=O)Nc3cc(F)ccc32)c1` [Compound 3-13, (E)-3-(6-Fluoro-2-oxo-1,2-dihydro-indol-3-ylidenemethyl)-N-isopropyl-benzenesulfonamide], for which the IC50 in the experiment on HuH7 cells (setting [1]) is 2.29 ± 0.06 µM; in the experiment on HuH7 cells (setting [2]), 2.29 ± 0.06 µM; in the experiment on Hep G2 it was 4.22 ± 0.48 µM.

Turning to `CNS(=O)(=O)c1ccc(/C=C2/C(=O)Nc3cc(Cl)ccc32)cc1` [Compound 1-21, (E)-4-(6-Chloro-2-oxo-1,2-dihydro-indol-3-ylidenemethyl)-N-methyl-benzenesulfonamide], the IC50 was 15.3 ± 0.6 µM with HuH7 cells (setting [1]), 15.3 ± 0.6 µM in the experiment with HuH7 cells (setting [2]) and > 30 µM in the experiment on Hep G2.

For `CCN(CC)CCNC(=O)c1c(C)[nH]c(/C=C2\C(=O)Nc3ccc(F)cc32)c1C` [sunitinib, reference compound], the IC50 with HuH7 cells (setting [1]) was found to be 5.6 ± 0.12 µM; in the experiment with Hep G2, 5.07 ± 0.07 µM; with IMR 90, 6.32 ± 1.24 µM.

Take `O=C1Nc2cc(F)c(F)cc2/C1=C\c1cccc(C(F)(F)F)c1` [Compound 7-6, (E)-5,6-Difluoro-3-(3-trifluoromethyl-benzylidene)-1,3-dihydro-indol-2-one]: the IC50 in the experiment with HuH7 cells (setting [1]) worked out at 0.82 ± 0.2 µM; with HuH7 cells (setting [2]), 0.82 ± 0.2 µM; in the experiment with Hep G2, 0.69 ± 0.02 µM; in the experiment on IMR 90, 8.53 ± 0.6 µM.

For `CCCNS(=O)(=O)c1cccc(C=C2C(=O)Nc3cc(F)ccc32)c1` [Compound 3-12, E/Z-3-(6-Fluoro-2-oxo-1,2-dihydro-indol-3-ylidenemethyl)-N-propyl-benzenesulfonamide], the IC50 was determined as 0.12 ± 0.01 µM in the experiment on HuH7 cells (setting [1]), 0.12 ± 0.01 µM with HuH7 cells (setting [2]) and 0.72 ± 0.12 µM in the experiment with Hep G2. Also, the “potency relative to 1-10 on HuH7” value in the experiment on HuH7 cells (compared with 1-10 (original lead)) is 4 ×.

As for `CCCNS(=O)(=O)c1cccc(C=C2C(=O)Nc3cc(Cl)ccc32)c1` [Compound 1-23, E/Z-3-(6-Chloro-2-oxo-1,2-dihydro-indol-3-ylidenemethyl)-N-propyl-benzenesulfonamide], the IC50 in the experiment on HuH7 cells (setting [1]) was found to be 0.36 ± 0.04 µM; in the experiment on HuH7 cells (setting [2]), 0.36 ± 0.04 µM; in the experiment on Hep G2, 1.51 ± 0.11 µM.

For `CCNS(=O)(=O)c1cccc(/C=C2/C(=O)Nc3cc(Cl)ccc32)c1` [Compound 1-22, (E)-3-(6-Chloro-2-oxo-1,2-dihydro-indol-3-ylidenemethyl)-N-ethyl-benzenesulfonamide], the IC50 is 0.84 ± 0.09 µM in the experiment on HuH7 cells (setting [1]), 0.84 ± 0.09 µM in the experiment with HuH7 cells (setting [2]) and 3.96 ± 0.55 µM in the experiment with Hep G2.

Regarding `CC(C)NS(=O)(=O)c1cccc(C=C2C(=O)Nc3cc(Cl)ccc32)c1` [Compound 1-24, E/Z 3-(6-Chloro-2-oxo-1,2-dihydro-indol-3-ylidenemethyl)-N-isopropyl-benzenesulfonamide], the IC50 came to 1.93 ± 0.34 µM in the experiment on HuH7 cells (setting [1]), 1.93 ± 0.34 µM in the experiment on HuH7 cells (setting [2]) and 5.46 ± 0.95 µM in the experiment with Hep G2.

On to `CCNS(=O)(=O)c1cccc(/C=C2/C(=O)Nc3cc(F)ccc32)c1` [Compound 3-11, (E)-3-(6-Fluoro-2-oxo-1,2-dihydro-indol-3-ylidenemethyl)-N-ethyl-benzenesulfonamide], for which the IC50 with HuH7 cells (setting [1]) is 0.39 ± 0.07 µM; in the experiment with HuH7 cells (setting [2]), 0.39 ± 0.07 µM; with Hep G2, 1.61 ± 0.16 µM.

As for `CNC(=O)c1cc(Oc2ccc(NC(=O)Nc3ccc(Cl)c(C(F)(F)F)c3)cc2)ccn1` [Sorafenib, reference compound], the IC50 in the experiment on HuH7 cells (setting [1]) amounted to 5.35 ± 0.49 µM; in the experiment on Hep G2, 5.6 ± 0.21 µM; with IMR 90 it was 11 ± 1.72 µM.

Take `O=C1Nc2cc(F)ccc2/C1=C\c1ccccc1F` [Compound 3-2, (E)-6-Fluoro-3-(2-fluoro-benzylidene)-1,3-dihydro-indol-2-one]: the IC50 in the experiment on HuH7 cells (setting [1]) was determined as 0.91 ± 0.15 µM; with HuH7 cells (setting [2]), 0.91 ± 0.15 µM; in the experiment on Hep G2 it was 1.82 ± 0.63 µM; with IMR 90, 2.06 ± 0.33 µM.

As to `O=C1Nc2ccc(Cl)cc2/C1=C\c1cccc(C(F)(F)F)c1` [Compound 2-7, (E)-5-Chloro-3-(3-(trifluoromethyl)benzylidene)-1,3-dihydro-indol-2-one, reference compound], the IC50 in the experiment on HuH7 cells (setting [1]) came to 0.81 ± 0.11 µM; in the experiment on HuH7 cells (setting [2]), 0.81 ± 0.11 µM; with Hep G2, 1.5 ± 0.06 µM; with IMR 90, 9.13 ± 1.12 µM.

In the case of `O=C1Nc2ccc(F)c(F)c2C1=Cc1ccccc1C(F)(F)F` (mixture of isomers) [Compound 6-5, (E/Z)-4,5-Difluoro-3-(2-trifluoromethyl-benzylidene)-1,3-dihydro-indol-2-one], the IC50 in the experiment with HuH7 cells (setting [2]) is > 30 µM.

For the compound `COc1ccc2c(c1)NC(=O)/C2=C/c1cccc(C(F)(F)F)c1` [Compound 5-6, (E)-6-Methoxy-3-(3-trifluoromethyl-benzylidene)-1,3-dihydro-indol-2-one, reference compound], the IC50 with HuH7 cells (setting [2]) is 1.2 ± 0.05 µM.

For the compound `CNS(=O)(=O)c1cccc(/C=C2/C(=O)Nc3cc(OC)ccc32)c1` [Compound 5-8, (E)-3-(6-Methoxy-2-oxo-1,2-dihydro-indol-3-ylidenemethyl)-N-methyl-benzenesulphonamide], the IC50 in the experiment with HuH7 cells (setting [2]) was found to be 0.17 ± 0.02 µM.

Turning to `COc1cccc(C=C2C(=O)Nc3ccc(Cl)cc32)c1` [Compound 2-5, (E)-5-Chloro-3-(3-methoxybenzylidene)-dihydro-indol-2-one], the IC50 in the experiment on HuH7 cells (setting [2]) was > 30 µM.

Consider `O=C1Nc2ccc(F)c(F)c2/C1=C/c1cccc(F)c1` [Compound 6-3, (Z)-4,5-Difluoro-3-(3-fluoro-benzylidene)-1,3-dihydro-indol-2-one], for which the IC50 in the experiment on HuH7 cells (setting [2]) worked out at 15.9 ± 1.14 µM.

Regarding `O=C1Nc2ccc(F)cc2/C1=C\c1cccc(F)c1` [Compound 4-3, (E)-5-Fluoro-3-(3-fluoro-benzylidene)-1,3-dihydro-indol-2-one], in the experiment on HuH7 cells (setting [2]), the IC50 was 13.3 ± 2.31 µM.

Take `O=C1Nc2cc(F)ccc2/C1=C\c1cccc(F)c1` [Compound 3-3, (E)-6-Fluoro-3-(3-fluoro-benzylidene)-1,3-dihydro-indol-2-one]: the IC50 in the experiment on HuH7 cells (setting [2]) came to 2.41 ± 1.07 µM.

As to `O=C1Nc2ccc(F)c(F)c2/C1=C/c1ccccc1` [Compound 6-1, (Z)-3-Benzylidene-4,5-difluoro-1,3-dihydro-indol-2-one], the IC50 in the experiment on HuH7 cells (setting [2]) stood at 31.1 ± 2.12 µM.

Consider `O=C1Nc2ccc(Cl)cc2/C1=C\c1ccccc1C(F)(F)F` [Compound 2-6, (E)-5-Chloro-3-(2-trifluoromethylbenzylidene)-1,3-dihydro-indol-2-one], for which, in the experiment on HuH7 cells (setting [2]), the IC50 was > 30 µM.

In the case of `O=C1Nc2ccc(F)cc2/C1=C\c1cccc(C(F)(F)F)c1` [Compound 4-10, (E)-5-Fluoro-3-(3-trifluoromethyl-benzylidene)-1,3-dihydro-indol-2-one, reference compound], in the experiment with HuH7 cells (setting [2]), the IC50 came out at 4.04 ± 0.54 µM.

`CS(=O)(=O)c1cccc(/C=C2/C(=O)Nc3cc(F)c(F)cc32)c1` [Compound 7-9, (E)-5,6-Difluoro-3-(3-methanesulfonylbenzylidene)-1,3-dihydro-indol-2-one]: in the experiment with HuH7 cells (setting [2]), the IC50 stood at 13.9 ± 2.03 µM.

As to `O=C1Nc2ccccc2C1=Nc1cccc(C(F)(F)F)c1` [Compound 8-2, (E/Z) 3-(3-Trifluoromethyl-phenylimino)-1,3-dihydro-indol-2-one], the IC50 in the experiment with HuH7 cells (setting [2]) was > 30 µM.

For `O=C1Nc2ccc(F)c(F)c2/C1=C/c1ccc(C(F)(F)F)cc1` [Compound 6-7, (Z)-4,5-Difluoro-3-(4-trifluoromethyl-benzylidene)-1,3-dihydro-indol-2-one], the IC50 in the experiment with HuH7 cells (setting [2]) is > 30 µM.

As to `O=C1Nc2cc(F)c(F)cc2/C1=C\c1ccc(C(F)(F)F)cc1` [Compound 7-7, (E)-5,6-Difluoro-3-(4-(trifluoromethyl)benzylidene)-1,3-dihydro-indol-2-one], in the experiment with HuH7 cells (setting [2]), the IC50 amounted to 10.6 ± 0.68 µM.

The values are drawn from US8877946B2, “Benzylidene-indolinone compounds and their medical use” (National University of Singapore, priority 2011, dated 2014).
